Key:
[1] = target: T1, human GST-DYRK1A (full length) (Homo sapiens, UniProt Q13627); assay: GST-DYRK1A enzyme inhibition, ADP-Glo kinase assay; type: biochemical; settings: read-out: DYRK1 IC50
T1 construct: purified human GST-DYRK1A (full length, Thermo scientifics) enzyme; GST; purchased Thermo scientifics
Outline: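 Full-length human GST-DYRK1A (10 ng) incubated with 10 uM ATP and specific substrate for 1 h at 25° C in 40 mM Tris-HCl pH 7.4, 20 mM MgCl2, 0.5 mg/mL BSA, 50 uM DTT. ADP formation read by ADP-Glo luminescence; IC50 (nM) versus solvent control, triplicate.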

human GST-CLK1 (129-end) = target: T2, human GST-CLK1 (129-end) (Homo sapiens, UniProt P49759); assay: GST-CLK1 enzyme inhibition, ADP-Glo kinase assay; type: biochemical; settings: ATP 10 uM
T2 construct: purified human GST-CLK1 (129-end, Signalchem) enzyme; GST; purchased Signalchem
T2 sequence (P49759 129-484 limits assumed): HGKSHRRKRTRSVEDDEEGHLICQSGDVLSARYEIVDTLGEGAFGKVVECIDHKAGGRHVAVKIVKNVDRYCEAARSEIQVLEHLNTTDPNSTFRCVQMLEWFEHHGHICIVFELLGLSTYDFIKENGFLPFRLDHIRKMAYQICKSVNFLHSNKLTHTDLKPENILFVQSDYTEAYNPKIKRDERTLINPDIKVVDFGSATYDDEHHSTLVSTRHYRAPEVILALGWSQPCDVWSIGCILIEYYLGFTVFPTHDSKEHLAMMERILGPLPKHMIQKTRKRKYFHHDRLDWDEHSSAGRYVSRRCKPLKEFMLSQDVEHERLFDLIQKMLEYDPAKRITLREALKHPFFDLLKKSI
Outline: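 GST-CLK1 (129-end, 3 ng) reacted with 10 uM ATP and substrate in 40 mM Tris-HCl pH 7.4, 20 mM MgCl2, 0.5 mg/mL BSA, 50 uM DTT, 1 h at 25° C. ADP-Glo luminescence normalised to solvent control; IC50 from triplicate data.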

MDA-MB-231 cell line = assay: MDA-MB-231 cancer cell proliferation inhibition (Cell Titer-Glo); type: cell-based; settings: Homo sapiens, MDA-MB-231 triple-negative breast cancer cell line, 72 hours
Procedure: (§1) In order to evaluate the cancer cell proliferation inhibitory activity of the compounds of the present invention, the following experiments were performed.
(§2) To evaluate the cancer cell proliferation inhibitory effect, the cell growth rate analysis was performed while culturing MDA-MB-231 cell line (Korean Cell Line Bank #30026) and MDA-MB-468 cell line as the triple-negative breast cancer cell line, and SHP-77 (ATCC #CRL-2195) as the small cell lung cancer cell line in DMEM (HyClone #SH30243) and RPMI medium (HyClone #SH3027.01), respectively. More specifically, the cell lines were each plated at 2000 cells/100 μl in each well of a 96-well flat-bottom plate (coming #3903), and then the example compounds having eleven concentrations which were diluted by ⅓ so that the final concentrations were 10.000000, 3.333333, 1.111111, 0.370370, 0.123457, 0.041152, 0.013717, 0.004572, 0.001524, 0.000508 and 0.000169 μM were treated. After 72 hours, 100 μl of Cell Titer-Glo (Promega G7573) was treated, incubated at RT for 10 minutes, and then luminescence was measured using a microplate reader. The measured luminescence degree was calculated as GI50 using Prism (version 8.2 GraphPad) software.
(§3) In the table below, the following designations were used for the evaluation of proliferation inhibitory activity.

SHP-77 = SHP-77 cancer cell proliferation inhibition (Cell Titer-Glo); type: cell-based; settings: Homo sapiens, SHP77, SHP-77 small cell lung cancer cell line, 72 hours
Procedure: as §1, §2, §3

LRRK2 = LRRK2 (Homo sapiens, UniProt Q5S007); assay: LRRK2 enzyme inhibition, ADP-Glo kinase assay; type: biochemical; design: purchased Invitrogen PR8604B
Chain of LRRK2 (Q5S007 970-2527 limits assumed): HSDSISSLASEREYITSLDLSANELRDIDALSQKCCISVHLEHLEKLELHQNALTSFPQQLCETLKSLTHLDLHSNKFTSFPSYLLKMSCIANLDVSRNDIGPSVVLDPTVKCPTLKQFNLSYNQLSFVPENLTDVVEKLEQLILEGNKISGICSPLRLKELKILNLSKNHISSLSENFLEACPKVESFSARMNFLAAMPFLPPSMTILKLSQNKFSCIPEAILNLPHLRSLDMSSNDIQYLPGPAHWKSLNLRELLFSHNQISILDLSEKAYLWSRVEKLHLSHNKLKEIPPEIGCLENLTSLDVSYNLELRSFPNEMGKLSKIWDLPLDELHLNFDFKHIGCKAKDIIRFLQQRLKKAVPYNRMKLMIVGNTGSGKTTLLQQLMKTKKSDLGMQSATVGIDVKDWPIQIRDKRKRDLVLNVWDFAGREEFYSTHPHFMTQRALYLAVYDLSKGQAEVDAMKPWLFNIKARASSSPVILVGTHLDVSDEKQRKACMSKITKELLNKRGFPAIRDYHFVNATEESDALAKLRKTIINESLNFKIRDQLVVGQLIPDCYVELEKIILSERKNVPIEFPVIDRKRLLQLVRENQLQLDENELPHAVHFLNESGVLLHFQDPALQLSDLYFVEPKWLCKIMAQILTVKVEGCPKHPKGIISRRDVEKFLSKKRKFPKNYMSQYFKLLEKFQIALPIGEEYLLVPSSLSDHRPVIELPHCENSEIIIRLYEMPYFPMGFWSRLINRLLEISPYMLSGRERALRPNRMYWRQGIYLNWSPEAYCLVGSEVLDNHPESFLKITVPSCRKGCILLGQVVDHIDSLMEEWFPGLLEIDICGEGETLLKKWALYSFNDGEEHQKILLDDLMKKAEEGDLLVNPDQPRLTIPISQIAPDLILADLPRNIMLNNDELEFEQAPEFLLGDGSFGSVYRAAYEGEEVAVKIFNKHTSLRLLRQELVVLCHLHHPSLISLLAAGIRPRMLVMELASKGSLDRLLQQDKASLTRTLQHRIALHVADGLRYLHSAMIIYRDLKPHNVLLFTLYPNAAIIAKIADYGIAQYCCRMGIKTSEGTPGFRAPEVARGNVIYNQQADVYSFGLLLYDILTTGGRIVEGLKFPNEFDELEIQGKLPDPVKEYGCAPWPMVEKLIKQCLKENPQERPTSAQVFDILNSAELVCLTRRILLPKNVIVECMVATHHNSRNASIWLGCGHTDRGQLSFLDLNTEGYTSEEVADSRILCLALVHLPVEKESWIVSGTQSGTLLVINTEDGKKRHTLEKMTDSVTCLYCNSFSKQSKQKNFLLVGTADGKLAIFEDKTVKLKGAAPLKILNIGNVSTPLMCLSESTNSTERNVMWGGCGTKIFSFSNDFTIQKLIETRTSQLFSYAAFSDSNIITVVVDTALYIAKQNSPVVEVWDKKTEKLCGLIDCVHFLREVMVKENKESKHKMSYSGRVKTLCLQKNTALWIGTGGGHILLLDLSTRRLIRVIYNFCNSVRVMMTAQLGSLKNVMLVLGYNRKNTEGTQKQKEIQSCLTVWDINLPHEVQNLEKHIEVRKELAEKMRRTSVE
Outline: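 Purified human LRRK2 (25 ng) in 40 mM Tris-HCl pH7.4, 20 mM MgCl2, 0.5 mg/ml BSA, 50 μM DTT with 10 μM ATP and substrate ([…]), 2 h at 25° C. Final compound 50 to 0.000001024 μM, 12-point dilution. ADP-Glo luminescence vs solvent control; IC50 (nM).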

LRRK2 (G2019S) = LRRK2 (G2019S) (Homo sapiens, UniProt Q5S007, G2019S); assay: LRRK2 G2019S enzyme inhibition, ADP-Glo kinase assay; type: biochemical; design: purchased SignalChem L10-12GG
Chain of LRRK2 (G2019S) (Q5S007 970-2527 G2019S limits assumed): as the sequence (Q5S007 970-2527 limits assumed) above, with G1050S counted along it
Outline: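 Purified human LRRK2 G2019S (16 ng) with 25 μM ATP and 0.2 μg substrate, 2 h at 25° C in 40 mM Tris-HCl pH 7.4, 20 mM MgCl2, 0.5 mg/ml BSA, 50 μM DTT; compound at 12 final concentrations from 50 μM downward. ADP-Glo luminescence versus solvent control gave IC50 (nM).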

human DYRK1A and Tau = assay: Tau phosphorylation inhibition, ClariCELL Kinase Cell-Based Assay (Carnabio)
Procedure: Tau phosphorylation inhibitory efficacy was measured using the ClariCELL™ Kinase Cell-Based Assay service of Carnabio, located in the United States. The compounds are exposed to human embryonic kidney ([…]) cells transiently expressing human DYRK1A and Tau, and then the cells are lysed to release cellular proteins. At this time, the released Tau is captured on a plate, and the degree of phosphorylation is quantified by ELISA using an antibody specific for Tau phosphorylation.

| Compound | IC50 [1] | IC50 (human GST-CLK1 (129-end)) | GI50 (MDA-MB-231 cell line) | GI50 (SHP-77) | IC50 (LRRK2) | IC50 (LRRK2 (G2019S)) | inhibition at 0.25 µM (human DYRK1A and Tau) | inhibition at 0.5 µM (human DYRK1A and Tau) | inhibition at 1 µM (human DYRK1A and Tau) |
| --- | --- | --- | --- | --- | --- | --- | --- | --- | --- |
| COc1cc(S(=O)(=O)N2CCC(N3CCOCC3)CC2)ccc1Nc1cc(NCCS(C)(=O)=O)c2c(C#N)c[nH]c2n1 [Example 141, 6-((2-methoxy-4-((4-morpholinopiperidin-1-yl)sulfonyl)phenyl)amino)-4-((2-(methylsulfonyl)ethyl)amino)-1H-pyrrolo[2,3-b]pyridine-3-carbonitrile] | < 100 nM | 301 to 1000 nM | 101 to 300 nM | 51 to 100 nM | < 100 nM |  |  |  |  |
| CNc1cc(Nc2ccc(S(=O)(=O)N3CCC(N4C[C@@H]5C[C@H]4CO5)CC3)cc2OC)nc2[nH]cc(C(F)(F)F)c12 [Example 242, N^6-(4-((4-((1S,4S)-2-oxa-5-azabicyclo[2.2.1]heptan-5-yl)piperidin-1-yl)sulfonyl)-2-methoxyphenyl)-N^4-methyl-3-(trifluoromethyl)-1H-pyrrolo[2,3-b]pyridine-4,6-diamine] | < 100 nM | < 100 nM |  |  | < 100 nM | < 100 nM | 49.8% | 77.2% | 108% |
| CCNc1cc(Nc2ccc(P3(=O)CCN(C4COC4)CC3)cc2OC)nc2[nH]cc(C(F)(F)F)c12 [Example 39, 4-(4-((4-(ethylamino)-3-(trifluoromethyl)-1H-pyrrolo[2,3-b]pyridin-6-yl)amino)-3-methoxyphenyl)-1-(oxetan-3-yl)-1,4-azaphosphinane 4-oxide] | 101 to 300 nM | 301 to 1000 nM | 301 to 1000 nM |  | 101 to 300 nM |  |  |  |  |
| COC[C@@H](C)Nc1cc(Nc2ccc(S(=O)(=O)N3CCC(N4CCOCC4)CC3)cc2OC)nc2[nH]cc(C(F)(F)F)c12 [Example 196, (R)-N^6-(2-methoxy-4-((4-morpholinopiperidin-1-yl)sulfonyl)phenyl)-N^4-(1-methoxypropan-2-yl)-3-(trifluoromethyl)-1H-pyrrolo[2,3-b]pyridine-4,6-diamine] | 301 to 1000 nM | 301 to 1000 nM | 301 to 1000 nM | 101 to 300 nM | < 100 nM |  |  |  |  |
| CCNc1cc(Nc2ccc(C(=O)N3CCN(C4CC4)CC3)c3c2OCC3)nc2[nH]cc(C(F)(F)F)c12 [Example 250, (4-cyclopropylpipe razin-1-yl)(7-((4-(ethylamino)-3-(trifluoromethyl)-1H-pyrrolo[2,3-b]pyridin-6-yl)amino)-2,3-dihydrobenzofuran-4-yl)methanone] | 101 to 300 nM | < 100 nM |  |  |  | 101 to 300 nM | 34% | 59.8% | 82.8% |
| COc1cc(S(=O)(=O)N2CCC(N3CCOCC3)CC2)ccc1Nc1cc(NC(C)C)c2c(C(F)(F)F)c[nH]c2n1 [Example 198, N^4-isopropyl-N^6-(2-methoxy-4-((4-morpholinopiperidin-1-yl)sulfonyl)phenyl)-3-(trifluoromethyl)-1H-pyrrolo[2,3-b]pyridine-4,6-diamine] | 301 to 1000 nM | 301 to 1000 nM | 301 to 1000 nM | 301 to 1000 nM |  |  |  |  |  |
| C=CCNc1cc(Nc2ccc(C(=O)N3CCC(N4CCOCC4)CC3)c3c2OCC3)nc2[nH]cc(C(F)(F)F)c12 [Example 255, (7-((4-(allylamino)-3-(trifluoromethyl)-1H-pyrrolo[2,3-b]pyridin-6-yl)amino)-2,3-dihydrobenzofuran-4-yl)(4-morpholinopiperidin-1-yl)methanone] | < 100 nM | < 100 nM |  |  |  | < 100 nM | 47.7% | 89.2% | 104% |
| COCCNc1cc(Nc2ccc(P3(=O)CCN(C4COC4)CC3)cc2OC)nc2[nH]cc(C(F)(F)F)c12 [Example 41, 4-(3-methoxy-4-((4-((2-methoxyethyl)amino)-3-(trifluoromethyl)-1H-pyrrolo[2,3-b]pyridin-6-yl)amino)phenyl)-1-(oxetan-3-yl)-1,4-azaphosphinane 4-oxide] | < 100 nM | < 100 nM | 301 to 1000 nM |  | < 100 nM |  |  |  |  |
| COCCNc1cc(Nc2ccc(P3(=O)CCN(C4CCOCC4)CC3)cc2OC)nc2[nH]cc(C(F)(F)F)c12 [Example 95, 4-(3-methoxy-4-((4-((2-methoxyethyl)amino)-3-(trifluoromethyl)-1H-pyrrolo[2,3-b]pyridin-6-yl)amino)phenyl)-1-(tetrahydro-2H-pyran-4-yl)-1,4-azaphosphinane 4-oxide] | < 100 nM | 101 to 300 nM | 301 to 1000 nM |  | 101 to 300 nM | 101 to 300 nM | 9.5% | 29.2% | 33.3% |
| CNc1cc(Nc2ccc(P3(=O)CCN(C4CCOCC4)CC3)cc2OC)nc2[nH]cc(C(F)(F)F)c12 [Example 216, 4-(3-methoxy-4-((4-(methylamino)-3-(trifluoromethyl)-1H-pyrrolo[2,3-b]pyridin-6-yl)amino)phenyl)-1-(tetrahydro-2H-pyran-4-yl)-1,4-azaphosphinane 4-oxide] | < 100 nM | < 100 nM | 301 to 1000 nM |  | 101 to 300 nM | 101 to 300 nM | 22.8% | 30.3% | 49.5% |
| CNc1cc(Nc2ccc(S(=O)(=O)N3CCOCC3)cc2OC)nc2[nH]ccc12 [Example 10, N^6-(2-methoxy-4-(morpholinosulfonyl)phenyl)-N^4-methyl-1H-pyrrolo[2,3-b]pyridine-4,6-diamine] | 301 to 1000 nM | 301 to 1000 nM | 301 to 1000 nM | 301 to 1000 nM |  | 101 to 300 nM |  |  |  |
| O=C(c1ccc(Nc2cc(NC3CC3)c3c(C(F)(F)F)c[nH]c3n2)c2c1OCCO2)N1CCC(N2CCOCC2)CC1 [Example 163, (8-((4-(cyclopropylamino)-3-(trifluoromethyl)-1H-pyrrolo[2,3-b]pyridin-6-yl)amino)-2,3-dihydrobenzo[b] [1,4]dioxin-5-yl)(4-morpholinopiperidin-1-yl)methanone] | 101 to 300 nM | < 100 nM | 301 to 1000 nM |  | < 100 nM | < 100 nM |  |  |  |
| CNc1cc(Nc2cc(F)c(S(=O)(=O)N3CCC(N4CCOCC4)CC3)cc2OC)nc2[nH]cc(C(F)(F)F)c12 [Example 265, N^6-(5-fluoro-2-methoxy-4-((4-morpholinopiperidin-1-yl)sulfonyl)phenyl)-N^4-methyl-3-(trifluoromethyl)-1H-pyrrolo[2,3-b]pyridine-4,6-diamine] | 101 to 300 nM | 301 to 1000 nM | 301 to 1000 nM | 301 to 1000 nM |  | < 100 nM |  |  |  |
| CCNc1cc(Nc2ccc(C(=O)N3CC[C@H](N4CCOCC4)C3)c3c2OCC3)nc2[nH]cc(C(F)(F)F)c12 [Example 215, (S)-(7-((4-(ethylamino)-3-(trifluoromethyl)-1H-pyrrolo[2,3-b]pyridin-6-yl)amino)-2,3-dihydrobenzofuran-4-yl)(3-morpholinopyrrolidin-1-yl)methanone] | < 100 nM | < 100 nM |  |  | < 100 nM | < 100 nM | 30% | 70.8% | 82% |

— US12240844B2 (Voronoi, Inc., priority 2019, dated 2025)
